Measured values published in paper PMC3319558, “Functional Correlates of Positional and Gender-Specific Renal Asymmetry in Drosophila” (PLoS ONE, 2012).
pEC50: −log10 of the molar value. “Also recorded” adds a separate entry of the source. Each block holds one compound with its values, some of them ahead of it. Ends that are not written are not given here. Peptide text beside a SMILES is read from it.

Legend:
Drosophila SPR = conditions: more sensitive to MIP than to SP itself; ref [59]; cited from earlier work
Source text: (§1) Intriguingly, two well-known receptors (for sex peptide and neuropeptide F) are prominently male-enriched (Supporting information S1). Their spatial expression patterns are presented along with their peptide ligands in Supporting information S1. Sex peptide receptor (SPR) is 6.6x male-enriched.

female = conditions: transferred with the sperm to the female; ref [58]; cited from earlier work
Source text: as §1

male tubules = assay: Tubule fluid secretion assay; set-up: species or system Drosophila melanogaster; conditions: sNPF 10^−7 M added at 30 min, average rates before vs after addition, *** Student's t-test, two tailed, P<0.05, N = 10 tubules (typical trace)
Procedure: (§2) Classical fluid secretion assays were performed as previously described by Dow et al.. Briefly, basal fluid secretion rates of the dissected live tubules were established for 30 min after which the required concentrations of peptides were added and secretion was measured for a further 70 min. The rates of secretion (in nl/min) were represented as the mean (±SEM) of approximately 30–35 tubules coming from 3 independent biological replicates.
(§3) sNPF (AQRSPSLRLRF-NH2) and MIP (AWQSLQSSW-NH2) peptides were synthesised by Biomatik, USA with a purity of greater than 98%. NPF ([…]-NH2) peptide was a kind gift from Professor Ian Orchard (University of Toronto Mississauga). According to the peptide profiles generated by peptide profile calculator (Gene Script, UK), they were dissolved first in water to produce a stock solution of 10 mM and subsequently diluted in the Schneider’s medium to get required final concentrations.

female tubules = assay: Tubule fluid secretion assay; set-up: species or system Drosophila melanogaster; conditions: sNPF 10^−7 M added at 30 min, average rates before vs after addition
Procedure: as §2, §3

right and left tubules = conditions: right v. left tubules; chloride conductance under control of leucokinin through intracellular calcium; ref [48], [49]; cited from earlier work
Source text: Bestrophin 2 encodes (of four Drosophila bestrophins) the most closely related to human bestrophin 1, a calcium- and volume-activated chloride channel of retinal pigmented epithelial cells, which is mutated in Best’s macular dystrophy, [44]. However, Bestrophins play wider roles: they are implicated in epithelial-to-mesenchymal transitions in human kidney, and in olfactory transduction. In Drosophila, Best1 also mediates a calcium and volume activated chloride current. FlyAtlas reports that, although expressed in eye, Best2 is abundant in epithelia; in adult tubul ...

male Malpighian tubules = conditions: 3 h
Procedure: Cytosolic [Ca^2+]cyto or peroxisomal [Ca^2+]perox calcium was measured in tubules expressing transgenic aequorin according to published protocols [88], [89]. Briefly, the tubules were dissected, incubated at room temperature with 2.5 µM coelenterazine to reconstitute aequorin for 3 h. Calcium-dependent aequorin luminescence was measured in 10 biological replicates each containing 20-pairs of tubules. At the end of each experiment, total aequorin was released using 300 µl of lysis buffer (1% (v/v) Triton X-100, 100 mM CaCl2) in order to calculate the total luminescence; and the data were back-integrated using a program written in Perl, based on the method described by Button and Eidsath [90]. Data are presented as the mean (±SEM) and statistical significance was calculated using unpaired t-test.

Compound: AWQSLQSSW-NH2 [allatostatin-B, the Drosophila MIP, allatostatin-B]
- Sensitivity of Drosophila SPR relative to SP (Drosophila SPR): 10 x

Compound: Sex peptide: transferred with the sperm to the female (WEWPWNRKPTKFPIPSPNPRDKWCRLNLGPAWGGRC; ends and bridges not checked; cysteine pairing not given here; UniProt P05623 20-55, looked up)
- Change in female physiology and behaviour (female): a reduction in receptivity to subsequent matings

Compound: AQRSPSLRLRF-NH2 [sNPF, short neuropeptide F, distantly related peptide, the so called short neuropeptide F; synthesised by Biomatik]
- Resting fluid secretion (male tubules): inhibits fluid secretion in male; also recorded: inhibits resting fluid secretion
- Resting fluid secretion (female tubules): not female; also recorded: only of male tubules

Compound: leucokinin: diuretic neuropeptide leucokinin, which acts through intracellular calcium (NSVVLGKKQRFHSWG; ends and bridges not checked; UniProt P81829 133-147, looked up)
- Action on right and left tubules (right and left tubules): acts equally on both right and left tubules

- pEC50 (male Malpighian tubules): 8.22
Compound: CSCC[C@H](NC(=O)[C@@H](NC(=O)[C@H](CC(N)=O)NC(=O)[C@@H](NC(=O)[C@H](CC(=O)O)NC(=O)[C@H](CC(N)=O)NC(=O)[C@H](CCCCN)NC(=O)[C@H](CCCNC(=N)N)NC(=O)[C@@H]1CCCN1C(=O)[C@@H]1CCCN1C(=O)[C@H](CCCNC(=N)N)NC(=O)[C@H](CO)NC(=O)[C@H](CC(N)=O)NC(=O)[C@@H](N)CO)C(C)C)[C@@H](C)O)C(=O)N[C@@H](C)C(=O)N[C@@H](CC(=O)O)C(=O)N[C@@H](C)C(=O)N[C@@H](Cc1ccc(O)cc1)C(=O)N[C@@H](CCCCN)C(=O)N[C@@H](Cc1ccccc1)C(=O)N[C@@H](CC(C)C)C(=O)N[C@@H](CCC(N)=O)C(=O)N[C@@H](CC(=O)O)C(=O)N[C@@H](CC(C)C)C(=O)N[C@@H](CC(=O)O)C(=O)N[C@H](C(=O)N[C@@H](Cc1ccc(O)cc1)C(=O)N[C@@H](Cc1ccc(O)cc1)C(=O)NCC(=O)N[C@@H](CC(=O)O)C(=O)N[C@@H](CCCNC(=N)N)C(=O)N[C@@H](C)C(=O)N[C@@H](CCCNC(=N)N)C(=O)N[C@H](C(=O)N[C@@H](CCCNC(=N)N)C(=O)N[C@@H](Cc1ccccc1)C(N)=O)C(C)C)[C@@H](C)O [NPF, neuropeptide F] (H-SNSRPPRKNDVNTMADAYKFLQDLDTYYGDRARVRF-NH2)
